The conditions of data set [1]: co-pending application Ser. No. 11/242,306; cited from earlier work.
Data set [2] can be described thus: Solubilization of ascorbic acid in absolute ethanol at room temperature, with or without urea. To be noted: 2.00% urea, 95.50% ethanol, stirring about 16 hours.
Method: The solubilization process was conducted at room temperature.
The mixture was kept at room temperature, while stirring until dissolved. Vitamin E acetate was added to the mixture. Vitamin E acetate was solubilized in the mixture.
Data set [3] can be described thus: Solubilization of ascorbic acid in propylene glycol at room temperature, with or without urea. To be noted: 7.0% ascorbic acid, 5.0% urea, 88.0% propylene glycol, stirring about 16 hours. It counts as physicochemical. As for the experimental part:
The solubilization process was carried out at room temperature.
The two sets of experiments (EXAMPLE 5 and EXAMPLE 6) were carried out side by side for comparison.

Molecules are shown by their SMILES.

As to `O=C1O[C@H]([C@@H](O)CO)C(O)=C1O` [ascorbic acid, L-ascorbic acid], the “concentration of dissolved ascorbic acid in nonaqueous alcohol solvents with urea and/or urea derivatives” value in data set [1] is listed as ≤ 28 % by weight.
In the case of `NC(N)=O` [urea, Urea], in data set [2], the “dissolution in absolute ethanol” value is “completely dissolved”. Also, the “dissolution in propylene glycol” value in data set [3] is on record as “completely dissolved”.
